# Laboratory results as given in US8088761B2, “Enzyme inhibitors” (Cancer Research Technology Limited, priority 2005, dated 2012).
# Tested on: HCT116 cells
# Assay: Cell viability assay (MTT) in HCT116 cell line
# Type: cell-based
# Conditions: Homo sapiens, HCT-116, 72 hrs, IC50 range, read-out: HCT116 cell growth inhibition
# Procedure: Cell Viability Assay: Determination of IC50 of Aurora Inhibitors in HCT116 Cell Line Using MTT Assay. The effects of compounds of the Examples on cellular proliferation were determined using the MTT assay according to manufacturer's instructions (Sigma). Briefly, the human colon tumour cells HCT116, were seeded in triplicate into 96-well plates at 2500 cells/well 24 hours before treatment with a range of concentrations of Aurora inhibitors (0-50 μM). After 72 hrs, 15 μl/well of 0.5% 3-(4,5-dimethylthiazol-2-yl)-2,5-diphenyltetrazolium bromide (MTT) was added to the cells for 4 hrs at 37° C., the dye-stained viable cells were extracted by adding 150 μl/well of dimethyl sulphoxide (DMSO). […] The IC50 was calculated using the Prism software.
row,SMILES,IC50 [nM]
1,"COc1ccc(-c2nc3c(N4CCN(Cc5csc(C)n5)CC4)c(Br)cnc3[nH]2)cc1 [Example 144, 4-((4-(6-Bromo-2-(4-methoxyphenyl)-3H-imidazo[4,5-b]pyridin-7-yl)piperazin-1-yl)methyl)-2-methylthiazole]",< 500
2,"COc1ccc(-c2nc3c(N4CCN(CC(=O)Nc5cc(C)no5)CC4)c(Cl)cnc3[nH]2)cc1 [Example 64, 2-(4-(6-Chloro-2-(4-methoxyphenyl)-3H-imidazo[4,5-b]pyridin-7-yl)piperazin-1-yl)-N-(3-methylisoxazol-5-yl)acetamide]",500 to 2000
3,"Cc1cc(NC(=O)CN2CCN(c3c(Cl)cnc4[nH]c(-c5ccc(N(C)C)cc5)nc34)CC2)on1 [Example 63, 2-(4-(6-Chloro-2-(4-(dimethylamino)phenyl)-3H-imidazo[4,5-b]pyridin-7-yl)piperazin-1-yl)-N-(3-methylisoxazol-5-yl)acetamide]",500 to 2000
4,"COc1ccc(-c2nc3c(N4CCN(Cc5cccnc5)CC4)c(Br)cnc3[nH]2)cn1 [Example 94, 6-Bromo-2-(6-methoxypyridin-3-yl)-7-(4-(pyridin-3-ylmethyl)piperazin-1-yl)-3H-imidazo[4,5-b]pyridine]",2000 to 50000
5,"Brc1cnc2[nH]c(-c3ccc(CN4CCOCC4)cc3)nc2c1N1CCN(Cc2ccncc2)CC1 [Example 68, 6-Bromo-2-(4-morpholin-4-ylmethyl-phenyl)-7-(4-pyridin-4-ylmethyl-piperazin-1-yl)-3H-imidazo[4,5-b]pyridine]",< 500

# Molecular target: T1, Aurora-A (Homo sapiens, UniProt O14965)
# T1 sequence (O14965 1-403): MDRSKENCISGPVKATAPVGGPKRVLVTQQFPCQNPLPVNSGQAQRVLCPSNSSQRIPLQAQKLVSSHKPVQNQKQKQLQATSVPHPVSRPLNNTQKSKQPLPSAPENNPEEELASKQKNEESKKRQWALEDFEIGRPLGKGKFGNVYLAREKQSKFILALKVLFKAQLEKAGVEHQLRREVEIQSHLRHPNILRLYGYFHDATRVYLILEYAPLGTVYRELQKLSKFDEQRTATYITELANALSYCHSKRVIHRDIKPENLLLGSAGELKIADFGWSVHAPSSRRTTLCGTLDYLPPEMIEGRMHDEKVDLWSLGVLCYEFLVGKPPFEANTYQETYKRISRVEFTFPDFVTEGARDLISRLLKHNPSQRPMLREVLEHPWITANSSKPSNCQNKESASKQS
# Assay: Flashplate Aurora A enzyme inhibition assay
# Type: biochemical
# Conditions: not given
# Procedure: Flashplate® Assay for Identification and Evaluation of Aurora-A Inhibitors
# On this assay 384-well Basic Flashplate® (SMP400E, PerkinElmer) as solid assay platform was used. The plates were coated overnight at 4° C. with […] at 100 μg/ml in PBS buffer and used after being washed twice with PBS. 5 μl of compound in 2% DMSO was added to each well followed by 15 μl master mix of kinase buffer (50 mM Tris pH 7.5, 10 mM NaCl, 2.5 mM MgCl2, 1 mM […], 20 μM ATP, and 0.025 μCi/μl ^33P-ATP). Finally, 250 ng per well of Aurora-A enzyme was added. The plate was shaken for approximately 2 min on a flat-bed plate shaker (Wellmix, Denley, UK) and incubated for 2 hours at room temperature. The reaction was stopped by washing the plate twice on a 16-pin wash (ELX50 BioTek Instruments Ltd., Northstar, Bedford, UK) with 10 mM sodium pyrophosphate. The plate was then read on a TopCount-NX™ (PerkinElmer Life Sciences UK Ltd., Hounslow, UK).
row,SMILES,IC50 [nM]
1,"CN(C)c1ccc(-c2nc3c(N4CCN(C(=O)Nc5ccccc5)CC4)c(Br)cnc3[nH]2)cc1 [Example 39, 4-(6-Bromo-2-(4-(dimethylamino)phenyl)-3H-imidazo[4,5-b]pyridin-7-yl)-N-phenylpiperazine-1-carboxamide]",< 500

# Same assay, conditions: Flashplate assay; IC50 range; read-out: Aurora-A inhibition
row,SMILES,IC50 [nM]
1,"COc1ccc(-c2nc3c(N4CCN(Cc5csc(C)n5)CC4)c(Br)cnc3[nH]2)cc1 [Example 144, 4-((4-(6-Bromo-2-(4-methoxyphenyl)-3H-imidazo[4,5-b]pyridin-7-yl)piperazin-1-yl)methyl)-2-methylthiazole]",< 500
2,"COc1ccc(-c2nc3c(N4CCN(CC(=O)Nc5cc(C)no5)CC4)c(Cl)cnc3[nH]2)cc1 [Example 64, 2-(4-(6-Chloro-2-(4-methoxyphenyl)-3H-imidazo[4,5-b]pyridin-7-yl)piperazin-1-yl)-N-(3-methylisoxazol-5-yl)acetamide]",< 500
3,"Cc1cc(NC(=O)CN2CCN(c3c(Cl)cnc4[nH]c(-c5ccc(N(C)C)cc5)nc34)CC2)on1 [Example 63, 2-(4-(6-Chloro-2-(4-(dimethylamino)phenyl)-3H-imidazo[4,5-b]pyridin-7-yl)piperazin-1-yl)-N-(3-methylisoxazol-5-yl)acetamide]",< 500
4,"COc1ccc(-c2nc3c(N4CCN(Cc5cccnc5)CC4)c(Br)cnc3[nH]2)cn1 [Example 94, 6-Bromo-2-(6-methoxypyridin-3-yl)-7-(4-(pyridin-3-ylmethyl)piperazin-1-yl)-3H-imidazo[4,5-b]pyridine]",< 500
5,"CN(C)c1ccc(-c2nc3c(N4CCN(Cc5c(F)cccc5Cl)CC4)c(Cl)cnc3[nH]2)cc1 [Example 16, 4-(6-Chloro-7-(4-(2-chloro-6-fluorobenzyl)piperazin-1-yl)-3H-imidazo[4,5-b]pyridin-2-yl)-N,N-dimethylaniline]",500 to 2000
6,"CN(C)c1ccc(-c2nc3c(N4CCN(c5ccccc5)CC4)c(Br)cnc3[nH]2)cc1 [Example 48, 4-(6-Bromo-7-(4-phenylpiperazin-1-yl)-3H-imidazo[4,5-b]pyridin-2-yl)-N,N-dimethylaniline]",< 500
7,"CC(C)(C)OC(=O)NCc1ccc(-c2nc3c(N4CCN(CC(=O)Nc5nccs5)CC4)c(Br)cnc3[nH]2)cc1 [Example 6, (4-{6-Bromo-7-[4-(thiazol-2-ylcarbamoylmethyl)-piperazin-1-yl]-3H-imidazo[4,5-b]pyridin-2-yl}-benzyl)-carbamic acid tert-butyl ester]",500 to 2000
8,"CC(C)(C)OC(=O)NCc1cccc(-c2nc3c(N4CCN(Cc5cccnc5)CC4)c(Br)cnc3[nH]2)c1 [Example 91, tert-Butyl 3-(6-bromo-7-(4-(pyridin-3-ylmethyl)piperazin-1-yl)-3H-imidazo[4,5-b]pyridin-2-yl)benzylcarbamate]",< 500
9,"COc1ccc(C(=O)N2CCN(c3c(Cl)cnc4[nH]c(-c5ccc(N(C)C)cc5)nc34)CC2)cc1 [Example 18, (4-(6-Chloro-2-(4-(dimethylamino)phenyl)-3H-imidazo[4,5-b]pyridin-7-yl)piperazin-1-yl)(4-methoxyphenyl)methanone]",2000 to 10000
10,"CC(C)c1nc(CN2CCN(c3c(Br)cnc4[nH]c(-c5ccc(CN6CCOCC6)cc5)nc34)CC2)co1 [Example 146, 4-(4-(6-Bromo-7-(4-((2-isopropyloxazol-4-yl)methyl)piperazin-1-yl)-3H-imidazo[4,5-b]pyridin-2-yl)benzyl)morpholine]",< 500
11,"CN(C)c1ccc(-c2nc3c(N4CCN(CCNC(=O)Nc5ccccc5)CC4)c(Br)cnc3[nH]2)cc1 [Example 41, 1-(2-(4-(6-Bromo-2-(4-(dimethylamino)phenyl)-3H-imidazo[4,5-b]pyridin-7-yl)piperazin-1-yl)ethyl)-3-phenylurea]",< 500
12,"COc1ncccc1-c1nc2c(N3CCN(Cc4cccnc4)CC3)c(Br)cnc2[nH]1 [Example 55, 6-Bromo-2-(2-methoxypyridin-3-yl)-7-(4-(pyridin-3-ylmethyl)piperazin-1-yl)-3H-imidazo[4,5-b]pyridine]",500 to 2000
13,"COc1ccc(-c2nc3c(N4CCN(Cc5csc(C(C)C)n5)CC4)c(Br)cnc3[nH]2)cc1 [Example 153, 4-((4-(6-Bromo-2-(4-methoxyphenyl)-3H-imidazo[4,5-b]pyridin-7-yl)piperazin-1-yl)methyl)-2-isopropylthiazole]",< 500
14,"CN(C)c1ccc(-c2nc3c(N4CCNCC4)c(Br)cnc3[nH]2)cc1 [Example 15, [4-(6-Bromo-7-piperazin-1-yl-3H-imidazo[4,5-b]pyridin-2-yl)-phenyl]-dimethyl-amine]",< 500
15,"CC(C)(C)OC(=O)N1CCN(c2ccc(-c3nc4c(N5CCN(Cc6cccnc6)CC5)c(Br)cnc4[nH]3)cc2)CC1 [Example 103, tert-Butyl 4-(4-(6-bromo-7-(4-(pyridin-3-ylmethyl)piperazin-1-yl)-3H-imidazo[4,5-b]pyridin-2-yl)phenyl)piperazine-1-carboxylate]",< 500
16,"CC(c1ccccc1)N1CCN(c2c(Br)cnc3[nH]c(-c4ccc(N5CCC(O)CC5)cc4)nc23)CC1 (stereo not drawn) [Example 88, 1-(4-{6-Bromo-7-[4-(1-phenyl-ethyl)-piperazin-1-yl]-3H-imidazo[4,5-b]pyridin-2-yl}-phenyl)-piperidin-4-ol]",< 500
17,"Cc1nc(CN2CCN(c3c(Br)cnc4[nH]c(-c5ccc(N6CCN(C(=O)OC(C)(C)C)CC6)cc5)nc34)CC2)cs1 [Example 158, tert-Butyl 4-(4-(6-bromo-7-(4-((2-methylthiazol-4-yl)methyl)piperazin-1-yl)-3H-imidazo[4,5-b]pyridin-2-yl)phenyl)piperazine-1-carboxylate]",< 500
18,"Cc1nc(CN2CCN(c3c(Br)cnc4[nH]c(-c5ccc(CN6CCN(C(=O)OC(C)(C)C)CC6)cc5)nc34)CC2)cs1 [Example 157, tert-Butyl 4-(4-(6-bromo-7-(4-((2-methylthiazol-4-yl)methyl)piperazin-1-yl)-3H-imidazo[4,5-b]pyridin-2-yl)benzyl)piperazine-1-carboxylate]",< 500
19,"CCOC(=O)C1CC1c1nc2c(N3CCN(CC(=O)Nc4nccs4)CC3)c(Br)cnc2[nH]1 (stereo not drawn) [Example 45, Ethyl 2-(6-bromo-7-(4-(2-oxo-2-(thiazol-2-ylamino)ethyl)piperazin-1-yl)-3H-imidazo[4,5-b]pyridin-2-yl)cyclopropanecarboxylate]",500 to 2000
20,"COc1ccc(-c2nc3c(N4CCN(Cc5nccs5)CC4)c(Br)cnc3[nH]2)cc1 [Example 151, 2-((4-(6-Bromo-2-(4-methoxyphenyl)-3H-imidazo[4,5-b]pyridin-7-yl)piperazin-1-yl)methyl)thiazole]",< 500
21,"CCN1CCN(c2c(Br)cnc3[nH]c(-c4ccc(N(C)C)cc4)nc23)CC1 [Example 47, 4-(6-Bromo-7-(4-ethylpiperazin-1-yl)-3H-imidazo[4,5-b]pyridin-2-yl)-N,N-dimethylaniline]",500 to 2000
22,"FC(F)(F)c1ccc(CN2CCN(c3c(Br)cnc4[nH]c(-c5ccc(N6CCOCC6)cc5)nc34)CC2)cn1 [Example 126, 4-(4-(6-Bromo-7-(4-((6-(trifluoromethyl)pyridin-3-yl)methyl)piperazin-1-yl)-3H-imidazo[4,5-b]pyridin-2-yl)phenyl)morpholine]",< 500
23,"CN(C)c1ccc(-c2nc3c(N4CCN(CCOc5ccccc5)CC4)c(Cl)cnc3[nH]2)cc1 [Example 9, (4-{6-Chloro-7-[4-(2-phenoxy-ethyl)-piperazin-1-yl]-3H-imidazo[4,5-b]pyridin-2-yl}-phenyl)-dimethyl-amine]",< 500
24,"CCNC(=O)N1CCN(c2c(Br)cnc3[nH]c(-c4ccc(N(C)C)cc4)nc23)CC1 [Example 43, 4-(6-Bromo-2-(4-(dimethylamino)phenyl)-3H-imidazo[4,5-b]pyridin-7-yl)-N-ethylpiperazine-1-carboxamide]",< 500
